In EPA's ToxRefDB 2:

Columns and labels:
[1] = tested on: rat; settings: Prenatal developmental toxicity study, sprague dawley, Oral, Gavage/Intubation, dose end: 15 GD
[2] = tested on: mouse; settings: Combined chronic toxicity/carcinogenicity, other, Inhalation, Whole-Body, dose end: 24 month, group: systemic
[3] = tested on: mouse; settings: Subchronic inhalation toxicity, other, Whole-Body, dose end: 13 week, group: systemic
[4] = tested on: mouse; settings: Subchronic oral toxicity in rodents, b6c3f1, Gavage/Intubation, dose end: 13 week, group: systemic, systemic / pathology microscopic / liver / [other] + systemic / pathology microscopic / liver / cytomegaly + systemic / pathology …
[5] = tested on: rat; settings: Subchronic oral toxicity in rodents, fischer, Gavage/Intubation, dose end: 13 week, group: systemic, systemic / in life observation / body weight / body weight gain + systemic / pathology microscopic / kidney / [other] + systemic / pathology…
[6] = tested on: mouse; settings: Carcinogenicity; b6c3f1; Oral; Gavage/Intubation; dose end: 103 week; group: systemic; systemic / pathology microscopic / kidney / [other] + systemic / pathology microscopic / kidney / degeneration + systemic / pathology …
[7] = tested on: rat; settings: Combined chronic toxicity/carcinogenicity, fischer, Inhalation, Whole-Body, dose end: 24 month, group: systemic
[8] = tested on: rat; settings: Subchronic inhalation toxicity, fischer, Whole-Body, dose end: 13 week, group: systemic
[9] = tested on: rat; settings: Carcinogenicity; fischer; Oral; Gavage/Intubation; dose end: 2 year; group: systemic; systemic / pathology microscopic / kidney / casts + systemic / pathology microscopic / kidney / degeneration + systemic / pathology …
[10] = tested on: mouse; settings: Subchronic oral toxicity in rodents, B6C3F1, Gavage/Intubation, dose end: 13 week, group: systemic, systemic / pathology microscopic / liver / cytomegaly
[11] = tested on: rat; settings: Subchronic oral toxicity in rodents, fischer, Gavage/Intubation, dose end: 13 week, group: systemic, systemic / pathology microscopic / kidney / degeneration
[12] = tested on: mouse; settings: Sub-acute repeat dose toxicity, b6c3f1, Oral, Gavage/Intubation, dose end: 16 day, group: systemic
[13] = tested on: rat; settings: Subchronic oral toxicity in rodents, fischer, Gavage/Intubation, dose end: 13 week, group: systemic
[14] = tested on: mouse; settings: Carcinogenicity, b6c3f1, Oral, Gavage/Intubation, dose end: 103 week, group: systemic
[15] = tested on: mouse; settings: Subchronic oral toxicity in rodents, b6c3f1, Gavage/Intubation, dose end: 13 week, group: systemic
[16] = tested on: rat; settings: Sub-acute repeat dose toxicity; fischer; Oral; Gavage/Intubation; dose end: 16 day; group: systemic; systemic / in life observation / body weight / body weight gain
[17] = tested on: rat; settings: Combined chronic toxicity/carcinogenicity; fischer; Oral; Gavage/Intubation; dose end: 103 week; group: systemic; systemic / in life observation / clinical signs / lethargy + systemic / pathology microscopic / stomach / inflammation + systemic / …
[18] = tested on: rat; settings: Multigenerational reproductive toxicity study, sprague dawley, Oral, Feed, dose end: 2 generation
[19] = tested on: rat; settings: Developmental neurotoxicity study; fischer; Oral; Feed; dose end: 114 PND; group: cannot be grouped; systemic / in life observation / body weight / offspring (pup) weight
[20] = tested on: rat; settings: Carcinogenicity; other; Oral; Feed; dose end: 80 week; group: systemic; systemic / in life observation / body weight / body weight + systemic / in life observation / clinical signs / anemia + systemic / in life …
[21] = tested on: rat; settings: Developmental neurotoxicity study; fischer; Injection; Subcutaneous; dose end: 21 PND; group: cannot be grouped; systemic / in life observation / body weight / offspring (pup) weight + systemic / in life observation / clinical signs / tremors
[22] = tested on: rat; settings: Subchronic oral toxicity in rodents, other, Feed, dose end: 13 week
[23] = tested on: mouse; settings: Carcinogenicity, b6c3f1, Oral, Feed, dose end: 80 week, group: systemic
[24] = group: developmental, developmental / developmental malformation / bone / supernumerary + systemic / in life observation / body weight / fetal weight
[25] = group: maternal, systemic / in life observation / body weight / body weight gain + systemic / in life observation / food consumption / food consumption
[26] = systemic / pathology microscopic / liver / hepatoblastoma + systemic / pathology microscopic / liver / hepatocellular adenoma + systemic / …
[27] = systemic / in life observation / body weight / body weight + systemic / organ weight / liver / relative to body weight
[28] = systemic / organ weight / liver / absolute + systemic / organ weight / liver / relative to body weight + systemic / pathology microscopic / …
[29] = systemic / in life observation / body weight / body weight
[30] = systemic / in life observation / clinical signs / lethargy + systemic / in life observation / mortality / mortality
[31] = systemic / organ weight / liver / absolute + systemic / organ weight / liver / relative to body weight
[32] = systemic / in life observation / clinical signs / lethargy + systemic / in life observation / body weight / body weight
[33] = systemic / in life observation / clinical signs / lethargy + systemic / in life observation / body weight / body weight + systemic / …
[34] = systemic / in life observation / clinical signs / fur (altered appearance) + systemic / in life observation / clinical signs / lethargy
[35] = systemic / in life observation / clinical signs / fur (altered appearance) + systemic / in life observation / clinical signs / lethargy + …
[36] = group: offspring, systemic / in life observation / body weight / offspring (pup) weight
[37] = group: parental, systemic / in life observation / body weight / body weight + systemic / in life observation / body weight / body weight gain + systemic / …
[38] = group: parental, systemic / organ weight / kidney / relative to body weight
[39] = group: maternal, reproductive / reproductive performance / mating / mating
[40] = group: systemic, systemic / organ weight / kidney / absolute + systemic / organ weight / kidney / relative to body weight + systemic / organ weight / liver…
[41] = systemic / pathology microscopic / liver / hyperplasia
[42] = systemic / pathology microscopic / liver / hyperplasia + systemic / pathology microscopic / liver / hepatocellular carcinoma + systemic / in…

**Q.** What does the source list for `Clc1ccc(Cl)cc1` [1,4-Dichlorobenzene]?
**A.** LEL ([1]; group: developmental, developmental / developmental malformation / bone / supernumerary): 500 mg/kg/day; LOAEL [1, 24]: > 1000 mg/kg/day; NEL [1, 24]: 250 mg/kg/day; NOAEL [1, 24]: ≥ 1000 mg/kg/day; LEL [1, 25]: 500 mg/kg/day; LOAEL [1, 25]: > 1000 mg/kg/day; NEL [1, 25]: 250 mg/kg/day; NOAEL [1, 25]: ≥ 1000 mg/kg/day; LOAEL [2, 26]: > 300 ppm; NOAEL [2, 26]: ≥ 300 ppm; NEL ([2]; systemic / pathology microscopic / liver / hepatoblastoma + systemic / pathology microscopic / liver / hepatocellular carcinoma + systemic…): 20 ppm; LEL ([2]; systemic / pathology microscopic / nose / metaplasia): 75 ppm; LEL [3, 27]: 25 ppm; NEL [3, 27]: < 25 ppm; NOAEL ([3]; systemic / organ weight / liver / absolute + systemic / organ weight / liver / relative to body weight + systemic / clinical chemistry / …): 120 ppm; LOAEL ([3]; systemic / organ weight / liver / relative to body weight + systemic / organ weight / liver / absolute + systemic / pathology microscopic / …): 270 ppm; LEL [4]: 600 mg/kg/day; LOAEL [4]: 600 mg/kg/day; NEL [4]: < 600 mg/kg/day; NOAEL [4]: < 600 mg/kg/day; LEL [5]: 300 mg/kg/day; LOAEL [5]: 300 mg/kg/day; NEL [5]: < 300 mg/kg/day; NOAEL [5]: < 300 mg/kg/day; LEL [6]: 300 mg/kg/day; LOAEL [6]: 300 mg/kg/day; NEL [6]: < 300 mg/kg/day; NOAEL [6]: < 300 mg/kg/day; LOAEL [7, 28]: > 300 ppm; NEL [7, 28]: 20 ppm; NOAEL [7, 28]: ≥ 300 ppm; LEL ([7]; systemic / pathology microscopic / nose / [other]): 75 ppm; LEL [8, 29]: 25 ppm; NEL [8, 29]: < 25 ppm; NOAEL ([8]; systemic / in life observation / body weight / body weight + systemic / organ weight / kidney / absolute + systemic / organ weight / kidney…): 120 ppm; LOAEL ([8]; systemic / organ weight / kidney / absolute + systemic / organ weight / kidney / relative to body weight + systemic / pathology microscopic…): 270 ppm; LEL [9]: 150 mg/kg/day; LOAEL [9]: 150 mg/kg/day; NEL [9]: < 150 mg/kg/day; NOAEL [9]: < 150 mg/kg/day; LEL [10]: 675 mg/kg/day; LOAEL [10]: 675 mg/kg/day; NEL [10]: 338 mg/kg/day; NOAEL [10]: 338 mg/kg/day; LEL [11]: 300 mg/kg/day; LOAEL [11]: 300 mg/kg/day; NEL [11]: 150 mg/kg/day; NOAEL [11]: 150 mg/kg/day

**Q.** For `S=c1[nH]c2ccccc2s1` [2-Mercaptobenzothiazole], which LOAEL ([12]; systemic / in life observation / clinical signs / lethargy) is on record?
**A.** 1500 mg/kg/day

**Q.** And the LEL [12, 30]?
**A.** 1500 mg/kg/day

**Q.** What about the NEL [12, 30] of the same compound?
**A.** 750 mg/kg/day

**Q.** And the NOAEL [12, 30]?
**A.** 750 mg/kg/day

**Q.** What about the LOAEL ([13]; systemic / in life observation / body weight / body weight gain + systemic / in life observation / clinical signs / irritability) of the same compound?
**A.** 750 mg/kg/day

**Q.** And the LEL [13, 31]?
**A.** 188 mg/kg/day

**Q.** What about the NEL [13, 31] of the same compound?
**A.** < 188 mg/kg/day

**Q.** What about the NOAEL ([13]; systemic / organ weight / liver / absolute + systemic / organ weight / liver / relative to body weight + systemic / in life observation / …) of the same compound?
**A.** 375 mg/kg/day

**Q.** What about the LOAEL [14, 32] of the same compound?
**A.** 375 mg/kg/day

**Q.** And the NOAEL [14, 32]?
**A.** < 375 mg/kg/day

**Q.** What about the LEL [14, 33] of the same compound?
**A.** 375 mg/kg/day

**Q.** And the NEL [14, 33]?
**A.** < 375 mg/kg/day

**Q.** And the LEL [15, 34]?
**A.** 375 mg/kg/day

**Q.** What about the LOAEL [15, 34] of the same compound?
**A.** 375 mg/kg/day

**Q.** What about the NEL [15, 35] of the same compound?
**A.** 188 mg/kg/day

**Q.** What about the NOAEL [15, 35] of the same compound?
**A.** 188 mg/kg/day

**Q.** What about the LEL [16] of the same compound?
**A.** 2500 mg/kg/day

**Q.** And the LOAEL [16]?
**A.** > 2500 mg/kg/day

**Q.** What about the NEL [16] of the same compound?
**A.** 1250 mg/kg/day

**Q.** What about the NOAEL [16] of the same compound?
**A.** ≥ 2500 mg/kg/day

**Q.** And the LEL [17]?
**A.** 188 mg/kg/day

**Q.** What about the LOAEL [17] of the same compound?
**A.** 188 mg/kg/day

**Q.** And the NEL [17]?
**A.** < 188 mg/kg/day

**Q.** And the NOAEL [17]?
**A.** < 188 mg/kg/day

**Q.** And the LEL [18, 36]?
**A.** 194 mg/kg/day

**Q.** What about the LOAEL [18, 36] of the same compound?
**A.** 194 mg/kg/day

**Q.** What about the NEL [18, 36] of the same compound?
**A.** < 194 mg/kg/day

**Q.** And the NOAEL [18, 36]?
**A.** < 194 mg/kg/day

**Q.** And the LOAEL [18, 37]?
**A.** 695 mg/kg/day

**Q.** And the NOAEL [18, 37]?
**A.** 194 mg/kg/day

**Q.** What about the LEL [18, 38] of the same compound?
**A.** 218 mg/kg/day

**Q.** What about the NEL [18, 38] of the same compound?
**A.** < 218 mg/kg/day

**Q.** Which results are given for `O=C1C2(Cl)C3(Cl)C4(Cl)C(Cl)(Cl)C5(Cl)C3(Cl)C1(Cl)C5(Cl)C24Cl` (centres undefined) [Kepone]?
**A.** LEL [19]: 0.05 mg/kg/day; LOAEL [19]: > 0.3 mg/kg/day; NEL [19]: < 0.05 mg/kg/day; NOAEL [19]: ≥ 0.3 mg/kg/day; LEL [20]: 0.4 mg/kg/day; LOAEL [20]: 0.4 mg/kg/day; NEL [20]: < 0.4 mg/kg/day; NOAEL [20]: < 0.4 mg/kg/day; LEL [21]: 1 mg/kg/day; LOAEL [21]: > 1 mg/kg/day; NEL [21]: < 1 mg/kg/day; NOAEL [21]: ≥ 1 mg/kg/day; LEL [22, 39]: 1.25 mg/kg/day; LOAEL [22, 39]: > 1.25 mg/kg/day; NEL [22, 39]: < 1.25 mg/kg/day; NOAEL [22, 39]: ≥ 1.25 mg/kg/day; LEL [22, 40]: 1.25 mg/kg/day; LOAEL [22, 40]: > 1.25 mg/kg/day; NEL [22, 40]: < 1.25 mg/kg/day; NOAEL [22, 40]: ≥ 1.25 mg/kg/day; LOAEL [23, 41]: 3 mg/kg/day; NOAEL [23, 41]: < 3 mg/kg/day; LEL [23, 42]: 3 mg/kg/day; NEL [23, 42]: < 3 mg/kg/day
